Test results from ChEMBL document CHEMBL1157969, “Stellettin A induces oxidative stress and apoptosis in HL-60 human leukemia and LNCaP prostate cancer cell lines” (J Nat Prod, 2006).
In brackets after ≈: the same amount, converted by molar mass. Activity calls are given as the source filed them. No cut-off for these calls is given here.

How the values were obtained:
HL-60 [1] = test: Induction of apoptosis in human HL60 cells assessed as increase in transcription of NOX1 after 5 hrs by immunoblot; format: functional, cell-based
HL-60 [2] = test: Induction of apoptosis in human HL60 cells assessed as increase in FasL levels after 24 hrs by immunoblot; format: functional, cell-based
HL-60 [3] = test: Induction of apoptosis in human HL60 cells assessed as increase in transcription of NADPH oxidase component p22phox after 5 hrs by immunoblot; format: functional, cell-based
HL-60 [4] = test: Induction of apoptosis in human HL60 cells assessed as increase in transcription of NADPH oxidase component p67phox after 5 hrs by immunoblot; format: functional, cell-based
HL-60 [5] = test: Induction of apoptosis in human HL60 cells assessed as mean fluorescence intensity of mitochondrial membrane potential dissipation at 4 ug/mL after 24 hrs; format: functional
HL-60 [6] = test: Induction of apoptosis in human HL60 cells assessed as decrease in Bcl-2 levels at 1 […] after 24 hrs by immunoblot; format: functional, cell-based
HL-60 [7] = test: Cytotoxicity against human HL60 cells after 48 hrs by MTT assay; format: functional, cell-based; conditions: HL-60, 48 h
HL-60 [8] = test: Induction of apoptosis in human HL60 cells assessed as increase in transcription of NADPH oxidase component p47phox after 5 hrs by immunoblot; format: functional, cell-based
HL-60 [9] = test: Induction of apoptosis in human HL60 cells assessed as increase in transcription of NOX5 after 5 hrs by immunoblot; format: functional, cell-based
LNCaP [10] = test: Induction of apoptosis in human LNCaP cells assessed as increase in transcription of NADPH oxidase component p67phox after 5 hrs by immunoblot; format: functional, cell-based
LNCaP [11] = test: Induction of apoptosis in human LNCaP cells assessed as increase in transcription of NADPH oxidase component p22phox after 5 hrs by immunoblot; format: functional, cell-based
LNCaP [12] = test: Induction of apoptosis in human LNCaP cells assessed as decrease in Bcl-2 levels at 20 […] after 24 hrs by immunoblot; format: functional, cell-based
LNCaP [13] = test: Induction of apoptosis in human LNCaP cells assessed as increase in FasL levels after 24 hrs by immunoblot; format: functional, cell-based
LNCaP [14] = test: Induction of apoptosis in human LNCaP cells assessed as mean fluorescence intensity of mitochondrial membrane potential dissipation at 20 ug/mL after 24 hrs; format: functional
LNCaP [15] = test: Induction of apoptosis in human LNCaP cells assessed as ROS generation; format: functional, cell-based
HL-60 [16] = test: Induction of apoptosis in human HL60 cells assessed as increase in caspase-3 levels at 1 […] after 24 hrs by immunoblot; format: functional, cell-based
LNCaP [17] = test: Induction of apoptosis in human LNCaP cells assessed as increase in transcription of NADPH oxidase component gp91phox after 5 hrs by immunoblot; format: functional, cell-based
LNCaP [18] = test: Induction of apoptosis in human LNCaP cells assessed as increase in caspase-3 levels at 20 […] after 24 hrs by immunoblot; format: functional, cell-based
HL-60 [19] = test: Induction of apoptosis in human HL60 cells assessed as mean fluorescence intensity of mitochondrial membrane potential dissipation at 1 ug/mL after 24 hrs; format: functional
LNCaP [20] = test: Induction of apoptosis in human LNCaP cells assessed as increase in transcription of NADPH oxidase component p47phox after 5 hrs by immunoblot; format: functional, cell-based
HL-60 [21] = test: Induction of apoptosis in human HL60 cells assessed as increase in transcription of NADPH oxidase component gp91phox after 5 hrs by immunoblot; format: functional, cell-based
HL-60 [22] = test: Induction of apoptosis in human HL60 cells at 4 ug/mL after 24 hrs in presence of antisense caspase-3 oligonucleotide; format: functional, cell-based
HL-60 [23] = test: Induction of apoptosis in human HL60 cells assessed as apoptotic bodies at 4 ug/mL after 24 hrs by fluorescence microscopy; format: functional
HL-60 [24] = test: Induction of apoptosis in human HL60 cells assessed as increase in transcription of NOX4 after 5 hrs by immunoblot; format: functional, cell-based
HL-60 [25] = test: Induction of apoptosis in human HL60 cells at 4 ug/mL after 24 hrs in presence of sense caspase-3 oligonucleotide; format: functional
LNCaP [26] = test: Induction of apoptosis in human LNCaP cells assessed as apoptotic bodies at 20 ug/mL after 24 hrs by fluorescence microscopy; format: functional
LNCaP [27] = test: Cytotoxicity against human LNCaP cells after 48 hrs by MTT assay; format: functional, cell-based

Which results are given for `C\C(=C/C=C/C(C)=C1/C(=O)C[C@H]2[C@@]3(C)CCC(=O)C(C)(C)[C@@H]3CC[C@]12C)c1ccc(C)c(=O)o1` [STELLETIN A]?
Activity (HL-60 [1]): inactive; Activity (HL-60 [2]): Dose-dependent effect; Activity (HL-60 [3]): Dose-dependent effect; Activity (HL-60 [4]): Dose-dependent effect; Activity (HL-60 [5]): 3.09; Activity (HL-60 [6]): Active; IC50 (HL-60 [7]): 0.4 µg/mL (≈ 0.865 µM); Activity (HL-60 [8]): Dose-dependent effect; Activity (HL-60 [9]): inactive; Activity (LNCaP [10]): inactive; Activity (LNCaP [11]): inactive; Activity (LNCaP [12]): inactive; Activity (LNCaP [13]): Dose-dependent effect; Activity (LNCaP [14]): 38.82; Activity (LNCaP [15]): Active; Activity (HL-60 [16]): Active; Activity (LNCaP [17]): inactive; Activity (LNCaP [18]): inactive; Activity (HL-60 [19]): 23.28; Activity (LNCaP [20]): inactive; Activity (HL-60 [21]): Dose-dependent effect; Activity (HL-60 [22]): inactive; Activity (HL-60 [23]): 56%; Activity (HL-60 [24]): inactive; Activity (HL-60 [25]): 51%; Activity (LNCaP [26]): <10%; IC50 (LNCaP [27]): 120 µg/mL (≈ 259 µM)
